#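 Test compounds were applied to cells in 96-well plates for 48 hours at 5 doses. GI50 = concentration required for 50% inhibition of growth.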 Active and inactive are the calls of the source. Rule as the data show it: active = GI50 up to about 1.1 µM and inactive = higher.
# How the values were obtained:
# Test in all cases: NCI tumour cell line growth inhibition, 48 h
# A549 = system: A549
# CCRF-CEM = system: CCRF-CEM
# HL-60 = system: HL-60
# SN12C = system: SN12C
# SW-620 = system: SW-620
# UO-31 = system: UO-31
# SF-539 = system: SF-539
# IGROV-1 = system: IGROV-1
# TK-10 = system: TK-10
# OVCAR-8 = system: OVCAR-8
# NCI-H23 = system: NCI-H23
# KM12 = system: KM12
# BT-549 = system: BT-549
# A498 = system: A498
# EKVX = system: EKVX
# SF-295 = system: SF-295
# NCI-H226 = system: NCI-H226
# SK-MEL-28 = system: SK-MEL-28
# CAKI-1 = system: CAKI-1
# HCC 2998 = system: HCC 2998
# NCI-H460 = system: NCI-H460
# COLO 205 = system: COLO 205
# SNB-19 = system: SNB-19
# MDA-N = system: MDA-N
# HCT-116 = system: HCT-116
# NCI-H522 = system: NCI-H522
# PC-3 = system: PC-3
# K562 = system: K562
# UACC-62 = system: UACC-62
# Hs-578T = system: Hs-578T
# MDA-MB-435 = system: MDA-MB-435
# M14 = system: M14
# DU-145 = system: DU-145
# MOLT-4 = system: MOLT-4
# T47D = system: T47D
# ACHN = system: ACHN
# 786-0 = system: 786-0
# HOP-92 = system: HOP-92
# U-251 = system: U-251
# Malme-3M = system: Malme-3M
# SK-OV-3 = system: SK-OV-3
# LOX IMVI = system: LOX IMVI
# UACC-257 = system: UACC-257
# SK-MEL-5 = system: SK-MEL-5
# HOP-62 = system: HOP-62
# HCT-15 = system: HCT-15
# SF-268 = system: SF-268
# OVCAR-4 = system: OVCAR-4
# RXF 393 = system: RXF 393
# HT-29 = system: HT-29
# OVCAR-3 = system: OVCAR-3
# MCF7 = system: MCF7
# RPMI-8226 = system: RPMI-8226
# OVCAR-5 = system: OVCAR-5
# SK-MEL-2 = system: SK-MEL-2
# NCI/ADR-RES = system: NCI/ADR-RES
# MDA-MB-231 = system: MDA-MB-231
compound,measurement,setting,value
O=c1c(Cc2ccc(Cl)cc2)nnc2sc(-c3ccc(-c4ccc(Cl)cc4Cl)o3)nn12,GI50,A549,80.5 µM (inactive)
same,GI50,CCRF-CEM,61.7 µM (inactive)
same,GI50,HL-60,23.2 µM (inactive)
same,GI50,SN12C,44.6 µM (inactive)
same,GI50,SW-620,> 100 µM (inactive)
same,GI50,UO-31,57.8 µM (inactive)
same,GI50,SF-539,85.7 µM (inactive)
same,GI50,IGROV-1,> 100 µM (inactive)
same,GI50,TK-10,> 100 µM (inactive)
same,GI50,OVCAR-8,48.6 µM (inactive)
same,GI50,NCI-H23,66.5 µM (inactive)
same,GI50,KM12,76.6 µM (inactive)
same,GI50,BT-549,> 100 µM (inactive)
same,GI50,A498,41.5 µM (inactive)
same,GI50,EKVX,29.4 µM (inactive)
same,GI50,SF-295,83.6 µM (inactive)
same,GI50,NCI-H226,> 100 µM (inactive)
same,GI50,SK-MEL-28,> 100 µM (inactive)
same,GI50,CAKI-1,73.5 µM (inactive)
same,GI50,HCC 2998,49.5 µM (inactive)
same,GI50,NCI-H460,59.6 µM (inactive)
same,GI50,COLO 205,72.3 µM (inactive)
same,GI50,SNB-19,33.3 µM (inactive)
same,GI50,MDA-N,48 µM (inactive)
same,GI50,HCT-116,27.5 µM (inactive)
same,GI50,NCI-H522,52.8 µM (inactive)
same,GI50,PC-3,79.8 µM (inactive)
same,GI50,K562,89.9 µM (inactive)
same,GI50,UACC-62,63.1 µM (inactive)
same,GI50,Hs-578T,> 100 µM (inactive)
same,GI50,MDA-MB-435,71 µM (inactive)
same,GI50,M14,95.5 µM (inactive)
same,GI50,DU-145,70 µM (inactive)
same,GI50,MOLT-4,43.7 µM (inactive)
same,GI50,T47D,74.5 µM (inactive)
same,GI50,ACHN,52 µM (inactive)
same,GI50,786-0,48 µM (inactive)
same,GI50,HOP-92,38.5 µM (inactive)
same,GI50,U-251,31 µM (inactive)
same,GI50,Malme-3M,> 100 µM (inactive)
same,GI50,SK-OV-3,> 100 µM (inactive)
same,GI50,LOX IMVI,47.1 µM (inactive)
same,GI50,UACC-257,> 100 µM (inactive)
same,GI50,SK-MEL-5,> 100 µM (inactive)
same,GI50,HOP-62,43.2 µM (inactive)
same,GI50,HCT-15,41.4 µM
same,GI50,SF-268,> 100 µM (inactive)
same,GI50,OVCAR-4,42.9 µM (inactive)
same,GI50,RXF 393,53.8 µM (inactive)
same,GI50,HT-29,64.1 µM (inactive)
same,GI50,OVCAR-3,34 µM (inactive)
same,GI50,MCF7,30.5 µM (inactive)
same,GI50,RPMI-8226,> 100 µM (inactive)
same,GI50,OVCAR-5,94.8 µM (inactive)
same,GI50,SK-MEL-2,36.7 µM (inactive)
same,GI50,NCI/ADR-RES,80.5 µM (inactive)
same,GI50,MDA-MB-231,93.3 µM (inactive)

# — ChEMBL document CHEMBL1201862, “PubChem BioAssay data set” (2004)
